For orientation: Ki means a dissociation constant, usually derived from enzyme kinetics or from competition with a known ligand.

Assay [1] has as its target Gelatinase. The assay is described as follows: in vitro particle concentration fluorescence assay, inhibition of gelatinase. To be noted: pH 7.5, room temperature, read-out: Gelatinase Ki (MMP Inhibition Constants). Format: biochemical. As to the method:
(§1) Inhibitory activity is evaluated in one or more of the MMP enzymes (stromelysin, gelatinase, and collagenase) in vitro using particle concentration fluorescence assay. An inhibitor binds to MMP enzymes which prevents the degradation of a substrate by stromelysin, gelatinase, or collagenase. The substrate has attached to it a fluorescein and a biotin moiety. The intact substrate then binds to an avidin-coated particle via the biotin moiety. Once the particle is washed and dried, a fluorescent signal is generated since the fluorescent group is attached to the particle. Without an inhibitor present, the substrate is degraded by MMP enzymes and the fluorescein group is removed, therefore, no fluorescent signal can be detected. Testing compounds are dissolved in DMSO to the desired concentration, then the solutions are diluted to 1:5 with MMP buffer (50 mM Tris-HCl, pH 7.5; 150 mM NaCl; 0.02% NaN3). Serial two-fold dilutions of each compound are prepared. A concentrated, activated enzyme solution is transferred into each plate of the testing compounds, and the mixture is incubated at room temperature for 15 minutes. Thawed MMP substrate is then added into all plates, and the plates are incubated in the dark for 1-3 hours at room temperature. At this point, the substrate mixture is mixed with 0.1% avidin-coated polystyrene particles. After 15 minutes, the fluorescence values are measured following filtration and washing of the beads. Ki values are then calculated.

In assay [2] the target is Stromelysin (Homo sapiens, UniProt P08254). The assay is described as follows: in vitro particle concentration fluorescence assay, inhibition of stromelysin. The class given is biochemical. To be noted: pH 7.5, room temperature, read-out: Stromelysin Ki (MMP Inhibition Constants). The method, then: as §1
Sequence of Stromelysin (P08254 100-477): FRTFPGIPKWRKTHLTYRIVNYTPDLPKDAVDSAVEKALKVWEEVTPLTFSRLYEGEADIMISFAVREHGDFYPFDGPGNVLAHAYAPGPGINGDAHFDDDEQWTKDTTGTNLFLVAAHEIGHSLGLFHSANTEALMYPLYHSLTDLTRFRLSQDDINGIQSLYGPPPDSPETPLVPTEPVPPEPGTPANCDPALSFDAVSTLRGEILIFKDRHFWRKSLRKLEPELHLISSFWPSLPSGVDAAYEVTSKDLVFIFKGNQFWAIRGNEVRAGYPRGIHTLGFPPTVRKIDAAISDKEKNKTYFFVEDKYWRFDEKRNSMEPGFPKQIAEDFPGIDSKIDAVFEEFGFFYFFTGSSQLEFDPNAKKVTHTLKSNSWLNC

In the case of `CCCCCCCCS(=O)(=O)CC(CS(=O)(=O)c1ccc(OC)cc1)C(=O)NO` (racemic) [Example 12, N-hydroxy-2-(n-octylsulfonylmethyl)-3-(4-methoxybenzenesulfonyl)-propionamide], the Ki in assay [1] is 0.82 nM; in assay [2] it was 5.4 nM.
For `CCCCOc1ccc(S(=O)(=O)CC(CN2C(=O)CN(CCCC)C2=O)C(=O)NO)cc1` (stereo not drawn) [Example 14, N-hydroxy-2-[methyl-3-(1-butylhydantoin)]-3-(4-butoxybenzenesulfonyl)-propionamide] the same measures were 0.092 nM and 1.8 nM.
The corresponding values for `CCCCCCCCS(=O)(=O)CC(CS(=O)(=O)CCCCCCCC)C(=O)NO` [Example 8, N-hydroxy-2-[(n-octylsulfonyl)methyl]-3-(n-octylsulfonyl)-propionamide] are 190 nM and 440 nM.
The corresponding values for `O=C(NO)C(CS(=O)(=O)c1ccc(Cl)cc1)CS(=O)(=O)c1ccc(Cl)cc1` [Example 5, N-hydroxy-2-[(4-chlorobenzenesulfonyl)methyl]-3-(4-chlorobenzenesulfonyl)-propionamide] are 1.9 nM and 72 nM.
For the compound `COc1ccc(S(=O)(=O)CC(CN2C(=O)CN(C)C2=O)C(=O)NO)cc1` (stereo not drawn) [Example 13, N-hydroxy-2-[methyl-3-(1-methylhydantoin)]-3-(4-methoxybenzenesulfonyl)-propionamide], the Ki in assay [1] is 1.3 nM; in assay [2], 17 nM.
As to `CC(CS(=O)(=O)c1ccccc1)C(=O)NO` (stereo not drawn) [Example 3, N-hydroxy 2-[(benzenesulfonyl)methyl]-propionamide], the values for the Ki in assay [1] and in assay [2] were 81 nM and 3600 nM, respectively.
The corresponding values for `COc1ccc(S(=O)(=O)CC(CS(=O)(=O)c2ccc(OC)cc2)C(=O)NO)cc1` [Example 4, N-hydroxy-2-[(4-methoxybenzene-sulfonyl)methyl]-3-(4-methoxybenzenesulfonyl)-propionamide] are 0.19 nM and 3.9 nM.
For `COc1ccc(S(=O)(=O)CCCC(CS(=O)(=O)c2ccc(OC)cc2)C(=O)NO)cc1` (stereo not drawn) [Example 11, N-hydroxy-2-[(4-methoxybenzenesulfonyl)-methyl]-5-(4-methoxybenzenesulfonyl)-pentanamide] the same measures were 1 nM and 1 nM.
The corresponding values for `CCCCN1CC(=O)N(CC(CS(=O)(=O)c2ccc(OC)cc2)C(=O)NO)C1=O` (stereo not drawn) [Example 15, N-hydroxy-2-[methyl-3-(1-butylhydantoin)]-3-(4-methoxybenzenesulfonyl)-propionamide] are 0.34 nM and 9 nM.
On to `Cc1ccc(S(=O)(=O)CC(CS(=O)(=O)c2ccc(C)cc2)C(=O)NO)cc1` [Example 9, N-hydroxy-2-[(4-methylbenzenesulfonyl)methyl]-3-(4-methylbenzenesulfonyl)-propionamide], for which the values for the Ki in assay [1] and in assay [2] were 3.8 nM and 130 nM, respectively.
For `COc1ccc(S(=O)(=O)CC(Cc2ccccc2)C(=O)NO)cc1` (stereo not drawn) [Example 1, N-hydroxy 2-[(4-methoxybenzenesulfonyl)methyl]-3-phenyl-propionamide] the same measures were 9.2 nM and 49 nM.
For `O=C(NO)C(CS(=O)(=O)c1ccc(Br)cc1)CS(=O)(=O)c1ccc(Br)cc1` [Example 6, N-hydroxy-2-[(4-bromobenzenesulfonyl)methyl]-3-(4-bromobenzenesulfonyl)-propionamide] the same measures were 2.5 nM and 92 nM.
For `O=C(NO)C(Cc1ccccc1)CS(=O)(=O)c1ccccc1` (stereo not drawn) [Example 2, N-hydroxy 2-[(benzenesulfonyl)methyl]-3-phenyl-propionamide] the same measures were 87 nM and 1100 nM.
Turning to `O=C(NO)C(CS(=O)(=O)c1ccccc1)CS(=O)(=O)c1ccccc1` [Example 10, N-hydroxy-2-[(benzenesulfonyl)methyl]-3-(benzenesulfonyl)-propionamide], the Ki in assay [1] amounted to 8 nM; in assay [2] it was 160 nM.
For `CCCCS(=O)(=O)CC(CS(=O)(=O)CCCC)C(=O)NO` [Example 7, N-hydroxy-2-[(n-butylsulfonyl)methyl]-3-(n-butylsulfonyl)-propionamide] the same measures were 350 nM and 1000 nM.

Source of the values: patent publication US5847153A, “β-sulfonyl hydroxamic acids” (Pharmacia & Upjohn Company, priority 1997, dated 1998).
